According to ChEMBL document CHEMBL5247640 (J Med Chem, 2023):
Activity calls are given as the source filed them. The calls are words filed in the database; no cut-off is given here.

Tests used:
[1] = Toxicity in ICR mouse assessed as decrease in serum total cholesterol level at 1 mg/kg, po administered as single dose measured after 24 hrs by automated biochemical analyzer; format: organism-based; parameters: scale not given: the % may be the effect or the level left; details: in vivo
[2] = Toxicity in ICR mouse assessed as decrease in serum total LDL-cholesterol level at 1 mg/kg, po administered as single dose measured after 24 hrs by automated biochemical analyzer; format: organism-based; parameters: scale not given: the % may be the effect or the level left; details: in vivo
[3] = Cardiotoxicity in ICR mouse assessed as upregulation of Myh6 mRNA expression in heart at 1 mg/kg, po administered as single dose by qRT-PCR analysis; format: toxicity, organism-based; details: in vivo
Mus musculus [4] = assay: Anti-NASH activity in high-fat diet and CCl4-induced nonalcoholic steatohepatitis C57BL/6J mouse assessed as decrease in inflammation score at 3 to 10 mg/kg, po once daily and measured after 48 hrs by hematoxylin and eosin staining based microscopic analysis; format: functional, organism-based; details: dose 3-10 mg/kg
[5] = Toxicity in ICR mouse assessed as decrease in serum total cholesterol level at 3 mg/kg, po administered as single dose measured after 24 hrs by automated biochemical analyzer; format: organism-based; parameters: scale not given: the % may be the effect or the level left; details: in vivo
[6] = Metabolic stability in rat liver microsomes assessed as half life; format: ADME, Microsome
[7] = Tmax in ICR mouse serum at 10 mg/kg, po measured after 24 hrs by LC-MS/MS analysis; format: ADME, organism-based
[8] = Tmax in ICR mouse at 30 mg/kg, po measured after 24 hrs by LC-MS/MS analysis; format: ADME, organism-based; details: in vivo
[9] = Cardiotoxicity in ICR mouse assessed as changes in Myh6/Myh7 ratio in heart at 3 to 10 mg/kg, po administered as single dose by qRT-PCR analysis; format: toxicity, organism-based; details: in vivo, dose 3-10 mg/kg
[10] = Cmax in ICR mouse at 30 mg/kg, po measured after 24 hrs by LC-MS/MS analysis; format: ADME, organism-based; parameters: time 24 hrs, dose 30 mg/kg, route po; details: in vivo
[11] = Cardiotoxicity in ICR mouse assessed as changes in Myh6 mRNA expression in heart at 3 to 10 mg/kg, po administered as single dose by qRT-PCR analysis; format: toxicity, organism-based; details: in vivo, dose 3-10 mg/kg
[12] = Cmax in ICR mouse serum at 10 mg/kg, po measured after 24 hrs by LC-MS/MS analysis; format: ADME, organism-based; parameters: dose 10 mg/kg, time 24 hrs, route po
[13] = Hepatotoxicity in ICR mouse assessed as upregulation of THRSP mRNA expression in liver by measuring fold change at 3 to 10 mg/kg, po administered as single dose by qRT-PCR analysis; format: toxicity, organism-based; details: in vivo, dose 3-10 mg/kg
[14] = Metabolic stability in human liver microsomes assessed as half life; format: ADME, Microsome
[15] = Metabolic stability in human liver microsomes assessed as intrinsic clearance; format: ADME, Microsome
[16] = AUClast in ICR mouse at 30 mg/kg, po measured after 24 hrs by LC-MS/MS analysis; format: ADME, organism-based; parameters: dose 30 mg/kg, time 24 hrs, route po; details: in vivo
[17] = Tmax in ICR mouse liver at 10 mg/kg, po measured after 24 hrs by LC-MS/MS analysis; format: ADME, organism-based
[18] = Toxicity in ICR mouse assessed as decrease in serum total LDL-cholesterol level at 3 mg/kg, po administered as single dose measured after 24 hrs by automated biochemical analyzer; format: organism-based; parameters: scale not given: the % may be the effect or the level left; details: in vivo
[19] = Half life in ICR mouse at 30 mg/kg, po measured after 24 hrs by LC-MS/MS analysis; format: ADME, organism-based; details: in vivo
[20] = Metabolic stability in rat liver microsomes assessed as intrinsic clearance; format: ADME, Microsome
Mus musculus [21] = assay: Anti-NASH activity in high-fat diet and CCl4-induced nonalcoholic steatohepatitis C57BL/6J mouse assessed as decrease in serum total cholesterol level administered orally once daily for 6 weeks; format: functional, organism-based; details: dose 3-10 mg/kg, route po
[22] = target: T1, Thyroid hormone receptor beta (Homo sapiens, UniProt P10828); assay: Agonist activity at human THRbeta transfected in Huh7 cells co-transfected with luciferase reporter plasmid assessed as […] luciferase activity incubated for 16 hrs by Steady-Glo luciferase assay; format: cell-based, Huh-7
T1 sequence (P10828 whole entry): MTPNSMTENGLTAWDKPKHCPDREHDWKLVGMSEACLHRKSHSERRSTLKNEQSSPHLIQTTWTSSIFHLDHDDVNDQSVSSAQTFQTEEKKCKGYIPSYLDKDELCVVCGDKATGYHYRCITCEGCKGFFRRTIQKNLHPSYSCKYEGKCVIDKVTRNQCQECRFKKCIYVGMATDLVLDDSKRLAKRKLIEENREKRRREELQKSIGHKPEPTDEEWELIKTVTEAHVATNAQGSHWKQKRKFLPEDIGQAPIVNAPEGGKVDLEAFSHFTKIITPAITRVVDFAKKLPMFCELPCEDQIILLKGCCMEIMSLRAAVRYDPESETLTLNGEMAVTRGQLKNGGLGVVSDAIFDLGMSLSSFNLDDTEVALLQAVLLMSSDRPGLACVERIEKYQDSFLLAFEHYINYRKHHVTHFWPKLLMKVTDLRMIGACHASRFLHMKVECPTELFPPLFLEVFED

[23] = Metabolic stability in monkey liver microsomes assessed as half life; format: ADME, Macaca mulatta, Microsome; details: rhesus monkey
[24] = Metabolic stability in monkey liver microsomes assessed as intrinsic clearance; format: ADME, Macaca mulatta, Microsome; details: rhesus monkey
[25] = Hepatotoxicity in ICR mouse assessed as upregulation of Me1 mRNA expression in liver by measuring fold change at 3 to 10 mg/kg, po administered as single dose by qRT-PCR analysis; format: toxicity, organism-based; details: in vivo, dose 3-10 mg/kg
[26] = Toxicity in ICR mouse assessed as decrease in serum total cholesterol level at 10 mg/kg, po administered as single dose measured after 24 hrs by automated biochemical analyzer; format: organism-based; parameters: scale not given: the % may be the effect or the level left; details: in vivo
[27] = AUClast in ICR mouse serum at 10 mg/kg, po measured after 24 hrs by LC-MS/MS analysis; format: ADME, organism-based; parameters: time 24 hrs, dose 10 mg/kg, route po
[28] = Cardiotoxicity in ICR mouse assessed as changes in Myh7 mRNA expression in heart at 3 to 10 mg/kg, po administered as single dose by qRT-PCR analysis; format: toxicity, organism-based; details: in vivo, dose 3-10 mg/kg
Mus musculus [29] = assay: Anti-NASH activity in high-fat diet and CCl4-induced nonalcoholic steatohepatitis C57BL/6J mouse assessed as reduction in col-1A1 gene expression in liver at 3 to 10 mg/kg, po once daily and measured after 48 hrs […]; format: functional, organism-based; details: dose 3-10 mg/kg
[30] = Metabolic stability in mouse liver microsomes assessed as intrinsic clearance; format: ADME, Microsome
[31] = Half life in ICR mouse serum at 10 mg/kg, po measured after 24 hrs by LC-MS/MS analysis; format: ADME, organism-based
[32] = Metabolic stability in mouse liver microsomes assessed as half life; format: ADME, Microsome
[33] = Hepatotoxicity in ICR mouse assessed as upregulation of Dio1 mRNA expression in liver by measuring fold change at 3 to 10 mg/kg, po administered as single dose by qRT-PCR analysis; format: toxicity, organism-based; details: in vivo, dose 3-10 mg/kg
Mus musculus [34] = assay: Anti-NASH activity in high-fat diet and CCl4-induced nonalcoholic steatohepatitis C57BL/6J mouse assessed as reduction in liver fibrosis area at 3 to 10 mg/kg, po once daily and measured after 48 hrs by sirius red staining based assay; format: functional, organism-based; details: dose 3-10 mg/kg
Mus musculus [35] = assay: Anti-NASH activity in high-fat diet and CCl4-induced nonalcoholic steatohepatitis C57BL/6J mouse assessed as decrease in NAFLD activity score at 3 to 10 mg/kg, po once daily and measured after 48 hrs by hematoxylin and eosin staining based microscopic analysis; format: functional, organism-based; details: dose 3-10 mg/kg
Mus musculus [36] = assay: Anti-NASH activity in high-fat diet and CCl4-induced nonalcoholic steatohepatitis C57BL/6J mouse assessed as decrease in liver steatosis at 3 to 10 mg/kg, po once daily and measured after 48 hrs by hematoxylin and eosin staining based microscopic analysis; format: functional, organism-based; details: dose 3-10 mg/kg
[37] = Cmax in ICR mouse liver at 10 mg/kg, po measured after 24 hrs by LC-MS/MS analysis; format: ADME, organism-based; parameters: dose 10 mg/kg, time 24 hrs, route po
[38] = Toxicity in ICR mouse assessed as decrease in serum total cholesterol level at 30 mg/kg, po administered as single dose measured after 24 hrs by automated biochemical analyzer; format: organism-based; parameters: scale not given: the % may be the effect or the level left; details: in vivo
Mus musculus [39] = assay: Anti-NASH activity in high-fat diet and CCl4-induced nonalcoholic steatohepatitis C57BL/6J mouse assessed as decrease in serum LDL-cholesterol level administered orally once daily for 6 weeks; format: functional, organism-based; details: dose 3-10 mg/kg, route po
[40] = target: T2, Thyroid hormone receptor alpha (Homo sapiens, UniProt P10827); assay: Agonist activity at human THRalpha transfected in Huh7 cells co-transfected with luciferase reporter plasmid assessed as […] luciferase activity incubated for 16 hrs by Steady-Glo luciferase assay; format: cell-based, Huh-7
T2 sequence (P10827 whole entry): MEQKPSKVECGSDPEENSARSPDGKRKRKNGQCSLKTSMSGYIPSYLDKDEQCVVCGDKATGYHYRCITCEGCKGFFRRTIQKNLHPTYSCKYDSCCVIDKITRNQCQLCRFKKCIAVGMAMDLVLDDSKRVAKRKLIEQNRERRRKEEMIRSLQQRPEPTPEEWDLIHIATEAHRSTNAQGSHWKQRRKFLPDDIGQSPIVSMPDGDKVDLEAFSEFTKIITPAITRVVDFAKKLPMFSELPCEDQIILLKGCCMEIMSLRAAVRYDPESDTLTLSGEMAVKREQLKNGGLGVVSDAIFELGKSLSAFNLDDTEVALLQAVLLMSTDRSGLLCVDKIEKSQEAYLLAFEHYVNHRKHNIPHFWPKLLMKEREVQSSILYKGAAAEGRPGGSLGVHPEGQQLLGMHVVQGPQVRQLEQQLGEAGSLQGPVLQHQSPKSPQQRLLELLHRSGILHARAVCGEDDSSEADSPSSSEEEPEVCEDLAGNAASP

[41] = Metabolic stability in dog liver microsomes assessed as half life; format: ADME, Canis lupus familiaris, Microsome
[42] = Toxicity in ICR mouse assessed as decrease in serum total LDL-cholesterol level at 10 mg/kg, po administered as single dose measured after 24 hrs by automated biochemical analyzer; format: organism-based; parameters: scale not given: the % may be the effect or the level left; details: in vivo
[43] = AUClast in ICR mouse liver at 10 mg/kg, po measured after 24 hrs by LC-MS/MS analysis; format: ADME, organism-based; details: in vivo

Row | Structure (SMILES) | Activity [5] [%] | half-life [6] [h] | Tmax [7] [h] | Tmax [8] [h] | Activity [9] | Cmax [10] [ng/mL] | Activity [11] | Cmax [12] [ng/mL] | fold change (FC) [13] | half-life [14] [h] | CLH [15] [mL/min/g] | AUC(0-t) at 24 h [16] [ng·h/mL] | Tmax [17] [h] | Activity [18] [%] | half-life [19] [h] | CLH [20] [mL/min/g] | fold change (FC) [25] | Activity [26] [%] | AUC(0-t) at 24 h [27] [ng·h/mL] | Activity [28] | further results
1 | N[C@@H](Cc1cc(I)c(Oc2ccc(O)c(I)c2)c(I)c1)C(=O)O [LIOTHYRONINE] | – | – | – | – | – | – | – | – | – | – | – | – | – | – | – | – | – | – | – | – | Activity [1]: 44%; Activity [2]: 61.9%; Activity [3]: Toxic
2 | CC(C)n1c(=O)ccc2c1ccn2-c1c(Cl)cc(-n2nc(C#N)c(=O)[nH]c2=O)cc1Cl | 30.7 | 3.48 | 6 | 8 | Non-Toxic | 2830 | Non-Toxic | 1200 | 16 | 2.98 | 11.7 | 37500 | 4 | 53.6 | 8.7 | 10 | 3 | 33.7 | 12100 | Non-Toxic | Activity (Mus musculus [4]): Active; Activity (Mus musculus [21]): Dose-Dependent Effect; EC50 [22]: 30 nM; half-life [23]: 4.38 h; CLH [24]: 8 mL/min/g; Activity (Mus musculus [29]): Active; CLH [30]: 7.7 mL/min/g; half-life [31]: 4.4 h; half-life [32]: 4.55 h; fold change (FC) [33]: 19; Activity (Mus musculus [34]): Active; Activity (Mus musculus [35]): Active; Activity (Mus musculus [36]): Active; Cmax [37]: 99000 ng/g; Activity [38]: 33%; Activity (Mus musculus [39]): Dose-Dependent Effect; EC50 [40]: 220 nM; half-life [41]: 0.25 h; Activity [42]: 62.1%
3 | CC(C)c1cc(Oc2c(Cl)cc(-n3nc(C#N)c(=O)[nH]c3=O)cc2Cl)n[nH]c1=O [RESMETIROM] | 27.2 | 4.08 | 2.7 | 6 | Non-Toxic | 12100 | Non-Toxic | 5710 | 10 | 1.32 | 26.5 | 168000 | 4 | 39.3 | 16.7 | 8.6 | 1.8 | 36.9 | 57100 | Non-Toxic | CLH [30]: 9 mL/min/g; half-life [31]: 9.1 h; half-life [32]: 3.88 h; fold change (FC) [33]: 12; Cmax [37]: 24300 ng/g; Activity [38]: 20.4%; AUClast [43]: 349501 ng·h/g; Activity [42]: 39.8%
